Experimental data published in patent US10457677B2 (priority 2015, dated 2019).
Read-outs that look alike come from different tables or passages of the source.

Legend:
[1] = molecular target: purified human recombinant ATM (ataxia telangiectasia mutated), full length (Homo sapiens (Human), UniProt Q13315); assay: ATM kinase assay - determination of ATM inhibition (IC50 ATM), TR-FRET; type: biochemical; details: 10 μM ATP, substrate p53
Protocol: ATM kinase assay—determination of ATM inhibition (IC50 ATM):
The IC50 value was determined with the aid of a biochemical ATM kinase assay. The assay consists of two steps: the enzymatic reaction and the detection step. Firstly, ATM (ataxia telangiectasia mutated) protein and the test substance are incubated at different concentrations with addition of substrate protein p53 and ATP. ATM mediates the phosphorylation of p53 at several positions, including at amino acid S15. The amount of phosphorylated p53 is determined with the aid of specific antibodies and the TR-FRET technique. The enzymatic ATM assay is carried out as TR-FRET (HTRF™, Cisbio Bioassays) based 384-well assay. In the first step, purified human recombinant ATM (human ATM, full length, GenBank ID NM_000051, expressed in a mammal cell line) is incubated in assay buffer for 15 minutes with the ATM inhibitor in various concentrations and without test substance as negative or neutral control. The assay buffer comprises 25 mM HEPES pH 8.0, 10 mM Mg(CH3COO)2, 1 mM MnCl2, 0,1% BSA and 0,01% Brij® 35, 5 mM dithiothreitol (DTT). […] In the second step, purified human recombinant cmyc-labelled p53 (human p53, full length, GenBank ID BC003596, expressed in Sf21 insect cells) and ATP are added, and the reaction mixture is incubated at 22° C. for 30-35 minutes. The pharmacologically relevant assay volume is 5 μl. […] The enzymatic reaction is stopped by addition of EDTA. […] After incubation, usually for 2 hours (between 1.5 and 15h), for signal development, the plates are analysed in a plate reader (EnVision, PerkinElmer) using TRF mode (and with laser excitation). […] The measurement data were processed by means of Genedata Screener software.

[2] = tested on: phosphorylation of CHK2 (phospho-Thr68) in HCT116 cells; assay: Cellular pCHK2 assay: bleomycin-induced phosphorylation of CHK2 (phospho-Thr68), immunofluorescence high-content analysis; type: cell-based, human; details: read-out: IC50 (pCHK2)
Source text: For the identification of substances which inhibit the phosphorylation of the protein kinase CHK2 at the amino acid threonine 68, an immunofluorescence-based “high content” analysis assay was used in HCT116 cells.
In vitro cell-based immunofluorescence assay for the identification of inhibitors of bleomycin-induced phosphorylation of CHK2 (phospho-Thr68) in the human colon carcinoma cell line HCT116:
HCT116 cells are sown out in a defined cell density in 384-well plates in culture medium (DMEM high glucose, 2 mM GlutaMax, 1 mM Na pyruvate, 10% FCS) and incubated overnight at 37° C. and 10% of CO2. On the following day, the test substances are added in a defined concentration range (1 nM to 30 μM) in combination with 10 μM bleomycin, where the concentration of the solvent DMSO is kept constant at 0.5%. […] Parallel staining of DNA with propidium iodide enables determination of the cell count. The pCHK2 signal is detected using a high-content imager (Molecular Devices IMX Ultra) and automatic image analysis using the MetaXpress software belonging to the instrument. The number of cell nuclei which have a pCHK2 signal above a defined background is determined.

[3] = HCT116 cells, 10 μM bleomycin, 4 h

purified human recombinant ATM (ataxia telangiectasia mutated), full length, sequence (Q13315 whole entry, change not shown): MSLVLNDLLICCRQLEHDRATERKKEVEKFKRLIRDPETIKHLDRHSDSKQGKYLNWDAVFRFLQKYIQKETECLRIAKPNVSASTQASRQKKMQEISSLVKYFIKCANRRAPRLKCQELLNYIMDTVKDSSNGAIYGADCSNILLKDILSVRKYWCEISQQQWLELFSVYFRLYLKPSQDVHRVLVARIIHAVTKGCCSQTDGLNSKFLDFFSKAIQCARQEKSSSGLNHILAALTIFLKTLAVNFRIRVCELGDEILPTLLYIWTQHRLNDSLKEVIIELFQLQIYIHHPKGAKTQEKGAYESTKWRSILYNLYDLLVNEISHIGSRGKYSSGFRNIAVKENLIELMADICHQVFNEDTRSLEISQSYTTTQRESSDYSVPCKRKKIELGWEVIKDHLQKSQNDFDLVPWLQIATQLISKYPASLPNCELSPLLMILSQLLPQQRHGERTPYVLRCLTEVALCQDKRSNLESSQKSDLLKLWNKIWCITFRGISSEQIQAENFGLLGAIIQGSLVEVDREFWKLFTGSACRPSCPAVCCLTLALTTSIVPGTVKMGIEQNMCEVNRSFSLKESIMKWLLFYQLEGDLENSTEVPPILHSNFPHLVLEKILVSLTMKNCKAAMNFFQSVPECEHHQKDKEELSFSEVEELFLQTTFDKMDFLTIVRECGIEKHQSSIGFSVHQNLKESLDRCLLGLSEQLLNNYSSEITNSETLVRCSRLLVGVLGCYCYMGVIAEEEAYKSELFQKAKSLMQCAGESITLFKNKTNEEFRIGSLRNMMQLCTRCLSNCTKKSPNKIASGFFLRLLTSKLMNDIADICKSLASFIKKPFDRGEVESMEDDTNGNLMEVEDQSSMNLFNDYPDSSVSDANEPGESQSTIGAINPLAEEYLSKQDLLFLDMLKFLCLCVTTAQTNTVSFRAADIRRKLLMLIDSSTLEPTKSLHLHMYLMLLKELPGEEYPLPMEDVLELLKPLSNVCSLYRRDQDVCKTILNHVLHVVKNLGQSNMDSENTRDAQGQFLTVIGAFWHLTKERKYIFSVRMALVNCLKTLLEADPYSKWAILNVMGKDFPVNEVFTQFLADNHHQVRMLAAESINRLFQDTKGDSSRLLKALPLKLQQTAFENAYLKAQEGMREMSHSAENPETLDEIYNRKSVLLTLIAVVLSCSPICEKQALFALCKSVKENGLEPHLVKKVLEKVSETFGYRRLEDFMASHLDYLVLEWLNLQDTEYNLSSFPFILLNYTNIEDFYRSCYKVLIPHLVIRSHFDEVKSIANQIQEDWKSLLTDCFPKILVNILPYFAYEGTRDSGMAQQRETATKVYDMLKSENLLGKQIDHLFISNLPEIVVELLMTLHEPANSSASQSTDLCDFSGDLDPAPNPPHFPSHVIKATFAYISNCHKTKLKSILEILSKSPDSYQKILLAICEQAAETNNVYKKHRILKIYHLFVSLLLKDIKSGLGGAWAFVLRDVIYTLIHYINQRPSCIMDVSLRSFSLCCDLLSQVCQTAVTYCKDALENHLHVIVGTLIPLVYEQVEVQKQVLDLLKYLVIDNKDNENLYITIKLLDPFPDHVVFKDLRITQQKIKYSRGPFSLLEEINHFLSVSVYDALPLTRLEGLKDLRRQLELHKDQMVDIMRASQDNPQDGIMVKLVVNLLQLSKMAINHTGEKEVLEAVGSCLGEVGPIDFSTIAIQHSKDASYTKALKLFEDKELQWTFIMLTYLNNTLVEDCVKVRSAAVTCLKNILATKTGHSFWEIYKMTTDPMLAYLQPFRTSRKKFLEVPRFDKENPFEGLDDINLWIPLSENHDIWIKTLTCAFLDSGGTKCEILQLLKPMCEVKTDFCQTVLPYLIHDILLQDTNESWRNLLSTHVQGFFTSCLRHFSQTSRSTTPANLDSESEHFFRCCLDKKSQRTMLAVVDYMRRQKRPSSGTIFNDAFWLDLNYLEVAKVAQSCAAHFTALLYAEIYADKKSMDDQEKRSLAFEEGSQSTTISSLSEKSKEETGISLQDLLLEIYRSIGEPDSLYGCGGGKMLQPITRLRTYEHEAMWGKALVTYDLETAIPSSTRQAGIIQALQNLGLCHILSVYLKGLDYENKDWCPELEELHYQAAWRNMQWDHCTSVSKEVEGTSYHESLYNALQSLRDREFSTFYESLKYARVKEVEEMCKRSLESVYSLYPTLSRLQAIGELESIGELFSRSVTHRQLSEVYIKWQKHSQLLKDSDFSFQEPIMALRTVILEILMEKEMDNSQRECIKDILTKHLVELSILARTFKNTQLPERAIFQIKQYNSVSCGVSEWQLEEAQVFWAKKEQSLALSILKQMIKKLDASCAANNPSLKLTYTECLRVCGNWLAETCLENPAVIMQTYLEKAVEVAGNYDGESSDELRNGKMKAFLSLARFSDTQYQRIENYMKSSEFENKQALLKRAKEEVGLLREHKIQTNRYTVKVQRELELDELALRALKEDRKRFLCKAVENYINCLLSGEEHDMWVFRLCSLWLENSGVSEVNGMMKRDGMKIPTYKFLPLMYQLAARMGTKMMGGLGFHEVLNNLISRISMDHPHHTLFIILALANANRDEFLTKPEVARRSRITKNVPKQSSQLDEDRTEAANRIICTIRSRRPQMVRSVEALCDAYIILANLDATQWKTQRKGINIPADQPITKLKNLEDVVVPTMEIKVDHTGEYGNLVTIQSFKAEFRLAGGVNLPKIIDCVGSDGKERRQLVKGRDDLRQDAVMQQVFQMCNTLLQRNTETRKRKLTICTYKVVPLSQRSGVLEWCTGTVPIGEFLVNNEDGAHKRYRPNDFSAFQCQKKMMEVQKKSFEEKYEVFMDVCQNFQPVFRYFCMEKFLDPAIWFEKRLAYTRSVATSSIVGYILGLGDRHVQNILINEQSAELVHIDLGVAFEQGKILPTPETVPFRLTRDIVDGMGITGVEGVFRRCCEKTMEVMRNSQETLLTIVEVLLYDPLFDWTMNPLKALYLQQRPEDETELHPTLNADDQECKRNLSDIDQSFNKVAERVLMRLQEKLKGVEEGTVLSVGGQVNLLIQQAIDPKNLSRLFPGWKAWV

[2H]C([2H])([2H])Oc1cnc(-n2c(=O)n(C)c3cnc4cc(OC)c(-c5cnn(C)c5)cc4c32)c(F)c1 [compound 155, 1-[3-Fluoro-5-(trideuterio-methoxy)-2-pyridyl]-7-methoxy-3-methyl-8-(1-methylpyrazol-4-yl) imidazo-[4,5-c]quinolin-2-one]
IC50 [1]: < 1 nM
IC50 ([2]; Homo sapiens, HCT-116, 4 h): < 200 nM

COc1cc2ncc3c(c2cc1-c1cn(C)nc1C)n(-c1c(F)cncc1OC(F)F)c(=O)n3C [compound 147, 1-(3-Difluoromethoxy-5-fluoropyridin-4-yl)-8-(1,3-dimethyl-1H-pyrazol-4-yl)-7-methoxy-3-methyl-1,3-dihydroimidazo[4,5-c]-quinolin-2-one]
IC50 [1]: < 1 nM
IC50 ([2]; Homo sapiens, HCT-116, 4 h): < 200 nM

1-(3-Fluoro-5-methylpyridin- 4-yl)-7-methoxy-3-methyl-8- (2-methyl-2H-1,2,3-triazol- 4-yl)-1,3-dihydroimidazo- [4,5-c] quinolin-2-one [compound 103]
IC50 [1]: < 50 nM
IC50 [2, 3]: 200 to 1000 nM

COc1cc2ncc3c(c2cc1-c1cnn(C)c1)n(-c1cn(C)nc1F)c(=O)n3C [compound 141, 1-(3-Fluoro-1-methyl-1H-pyrazol-4-yl)-7-methoxy-3-methyl-8-(1-methyl-1H-pyrazol-4-yl)-1,3-dihydro-imidazo[4,5-c]quinolin-2-one]
IC50 [1]: < 10 nM
IC50 ([2]; Homo sapiens, HCT-116, 4 h): 200 to 1000 nM

COc1cc2ncc3c(c2cc1-c1cc[nH]n1)n(-c1cn(C)nc1C)c(=O)n3C [compound 121, 1-(1,3-Dimethyl-1H-pyrazol-4-yl)-7-methoxy-3-methyl-8-(1H-pyrazol-3-yl)-1,3-dihydroimidazo[4,5-c]-quinolin-2-one]
IC50 [1]: < 10 nM
IC50 ([2]; Homo sapiens, HCT-116, 4 h): < 200 nM

CNC(=O)c1cnc(-n2c(=O)n(C)c3cnc4cc(OC)c(-c5cnn(C)c5)cc4c32)c(F)c1 [compound 138, 5-Fluoro-6-[7-methoxy-3-methyl-8-(1-methyl-1H-pyrazol-4-yl)-2-oxo-2,3-dihydroimidazo[4,5-c]-quinolin-1-yl]-N-methyl-nicotinamid]
IC50 [1]: < 10 nM
IC50 ([2]; Homo sapiens, HCT-116, 4 h): 200 to 1000 nM

CCc1cnccc1-n1c(=O)n(C)c2cnc3cc(OC)c(-c4cnn(CC)c4)cc3c21 [compound 157, 8-(1-Ethyl-1H-pyrazol-4-yl)-1-(3-ethylpyridin-4-yl)-7-methoxy-3-methyl-1,3-dihydroimidazo[4,5-c] quinolin-2-one]
IC50 [1]: < 10 nM
IC50 ([2]; Homo sapiens, HCT-116, 4 h): < 200 nM

CCn1cc(-c2cc3c(cc2OC)ncc2c3n(-c3c(F)cncc3OC)c(=O)n2C)cn1 [Example 13]
IC50 [2, 3]: < 200 nM

COc1cnc(-n2c(=O)n(C)c3cnc4cc(OC)c(-c5cnn(C)c5)cc4c32)c(F)c1 [compound 105, 1-(3-Fluoro-5-methoxy-pyridin-2-yl)-7-methoxy-3-methyl-8-(1-methyl-1H-pyrazol-4-yl)-1,3-dihydro-imidazo[4,5-c]quinolin-2-one]
IC50 [1]: < 1 nM
IC50 ([2]; Homo sapiens, HCT-116, 4 h): 200 to 1000 nM
